# PubChem BioAssay AID1963873 (Molecular Pharmacology Branch, DTP, NCI, 2024)
# System: 276233-004-R-J1-PDC KRAS spheroids with HUVEC/MSC, viability
# Assay: Anticancer human tumor 276233-004-R-J1-PDC patient-derived colon adenocarcinoma cell line growth inhibition [KRAS2]
# Conditions: for IC50: curve of first compound; for viability, T/C: stronger effect = lower value
# Text: Multicellular complex tumor spheroid response to RAS pathway inhibitors in combination with a targeted agents in patient-derived cell lines with oncogenic KRAS variants from multiple cancer types
# A high-throughput screen of multi-cell type tumor spheroids was designed to identify active combinations of targeted small molecules and KRAS pathway inhibitors. Complex spheroids include a stromal component modeled by human endothelial cells (HUVEC) and fibroblasts modeled by human mesenchymal stem cells (MSCs). The concentration ranges selected for each drug and investigational agent were based upon clinically achievable concentrations if the clinical Cmax of the agent was known.
# Compounds. The drugs and investigational agents: BI-3406 (NSC825286), BAY-293 (NSC824723), batoprotafib (TNO155; NSC825523), sotorasib (AMG 510; NSC818433), MRTX1257 (NSC819558), elimusertib (BAY 1895344; NSC800525), molibresib (GSK525762; NSC774829), temuterkib (LY3214996; NSC803410), venetoclax (NSC766270), alisertib (NSC759677), olaparib (NSC753686), talazoparib (NSC767125), erdafitinib (NSC781556), ipatasertib (NSC767898), cabozantinib (NSC761068), nintedanib (NSC756659), abemaciclib (NSC768073), docetaxel (NSC628503), trametinib (NSC758246), and sapanisertib (NSC764658) were obtained from the National Cancer Institute (NCI) Developmental Therapeutics Program Chemical Repository. The FDA-approved anticancer drug set is available from the Developmental Therapeutics Program. […] The stock solutions were prepared in dimethyl sulfoxide (DMSO, Sigma-Aldrich, St. Louis, MO, cat. D2650) at 800-fold the tested concentration and stored at -70 degrees C prior to their use. All drugs and investigational agents were tested over a range starting from a high concentration at or near the clinical Cmax and decreasing in half-log increments. If the clinical Cmax for an agent had not been determined, the highest concentration tested was 10 microM.
# Cell Culture. All cells were maintained in an incubator at 37 degrees C and 5% CO2 with 95% humidity. The PDC lines were cultured according to standard operating procedures established by the NCI PDMR (https://pdmr.cancer.gov/sops/default.htm). Briefly, all PDCs were thawed and cultured in Matrigel-coated flasks prepared with a working solution of 1X Ham's F-12 nutrient mix, without supplementation (Invitrogen, Waltham, MA, cat. 11765054), 100 U/mL penicillin-streptomycin (Invitrogen, cat. 15140122), and 2.5% Matrigel (Corning Inc., Corning, NY, cat. 354248) for the first three passages. All PDCs were cultured in complete DMEM/F-12 media containing advanced DMEM/F-12 (Invitrogen, cat. 12634028), 4.9% defined fetal bovine serum, heat inactivated (HyClone Laboratories Inc., Logan, UT, cat. SH30070.03HI), 389 ng/mL hydrocortisone (Sigma-Aldrich, cat. H4001), 9.7 ng/mL human EGF recombinant protein (Invitrogen, cat. PHG0313), 23.4 microg/mL adenine (Sigma-Aldrich, cat. A2786), 97.3 U/mL penicillin-streptomycin (Invitrogen, cat. 15140122), 1.9 mM L-glutamine (Invitrogen, cat. 25030081), and 9.7 microM Y-27632 dihydrochloride (Tocris Bioscience, Bristol, United Kingdom, cat. 1254). The PDCs were cultured in complete DMEM/F12 media without 9.7 microM Y-27632 dihydrochloride for at least two passages prior to the screen. The established cell line HOP-62 was cultured in RPMI 1640 medium, HEPES (Invitrogen, cat. 22400105) with 10% defined fetal bovine serum (HyClone Laboratories Inc., cat. SH30070.03) and 2 mM L-glutamine (Invitrogen, cat. 25030081). The pooled donor HUVEC were cultured in endothelial cell growth medium 2 (PromoCell, Heidelberg, Germany, cat. C-22011) and the hMSC were cultured in mesenchymal stem cell growth medium 2 (PromoCell, cat. C-28009). For all experiments, HUVEC and hMSC were used at passages </=5, while the malignant cell lines were used at passages </=15. […]
# [1] = second compound 0.1 µM, first compound 0.0316 µM
# [2] = second compound 0.316 µM, first compound 0.0316 µM
# [3] = second compound 1 µM, first compound 0.0316 µM
# [4] = second compound 3.16 µM, first compound 0.0316 µM
# [5] = second compound 10 µM, first compound 0.0316 µM
# 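Also: cells exposed to agents for seven days before viability read.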
# 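For viability, T/C in this document: 100% = DMSO vehicle control wells and lower values mean fewer viable cells.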
smiles,measurement,setting,value
CC(=O)Nc1cccc(-n2c(=O)n(C3CC3)c(=O)c3c(Nc4ccc(I)cc4F)n(C)c(=O)c(C)c32)c1 + COc1cc2nc(C)nc(NC(C)c3cc(N)cc(C(F)(F)F)c3)c2cc1OC1CCOC1,IC50,second compound 0.1 µM,0.00558 µM
same,IC50,second compound 0.316 µM,0.00405 µM
same,IC50,second compound 1 µM,0.00277 µM
same,IC50,second compound 3.16 µM,0.0018 µM
same,IC50,second compound 10 µM,< 0.0001 µM
same,"viability, T/C","second compound 0.1 µM, first compound 0.0001 µM",86%
same,"viability, T/C","second compound 0.1 µM, first compound 0.000316 µM",88.2%
same,"viability, T/C","second compound 0.1 µM, first compound 0.001 µM",75.2%
same,"viability, T/C","second compound 0.1 µM, first compound 0.00316 µM",63%
same,"viability, T/C","second compound 0.1 µM, first compound 0.01 µM",37.4%
same,"viability, T/C",[1],17%
same,"viability, T/C","second compound 0.316 µM, first compound 0.0001 µM",88.8%
same,"viability, T/C","second compound 0.316 µM, first compound 0.000316 µM",79.2%
same,"viability, T/C","second compound 0.316 µM, first compound 0.001 µM",65.1%
same,"viability, T/C","second compound 0.316 µM, first compound 0.00316 µM",54.3%
same,"viability, T/C","second compound 0.316 µM, first compound 0.01 µM",38.4%
same,"viability, T/C",[2],23%
same,"viability, T/C","second compound 1 µM, first compound 0.0001 µM",95.2%
same,"viability, T/C","second compound 1 µM, first compound 0.000316 µM",72.6%
same,"viability, T/C","second compound 1 µM, first compound 0.001 µM",69.7%
same,"viability, T/C","second compound 1 µM, first compound 0.00316 µM",44.7%
same,"viability, T/C","second compound 1 µM, first compound 0.01 µM",34.3%
same,"viability, T/C",[3],12.3%
same,"viability, T/C","second compound 3.16 µM, first compound 0.0001 µM",80.2%
same,"viability, T/C","second compound 3.16 µM, first compound 0.000316 µM",76.4%
same,"viability, T/C","second compound 3.16 µM, first compound 0.001 µM",59.4%
same,"viability, T/C","second compound 3.16 µM, first compound 0.00316 µM",39.7%
same,"viability, T/C","second compound 3.16 µM, first compound 0.01 µM",21.6%
same,"viability, T/C",[4],8.22%
same,"viability, T/C","second compound 10 µM, first compound 0.0001 µM",26.6%
same,"viability, T/C","second compound 10 µM, first compound 0.000316 µM",21.4%
same,"viability, T/C","second compound 10 µM, first compound 0.001 µM",21.7%
same,"viability, T/C","second compound 10 µM, first compound 0.00316 µM",14%
same,"viability, T/C","second compound 10 µM, first compound 0.01 µM",15.2%
same,"viability, T/C",[5],6.73%
CC1(C)CCC(CN2CCN(c3ccc(C(=O)NS(=O)(=O)c4ccc(NCC5CCOCC5)c([N+](=O)[O-])c4)c(Oc4cnc5[nH]ccc5c4)c3)CC2)=C(c2ccc(Cl)cc2)C1 + C=CC(=O)N1CCN(c2nc(=O)n(-c3c(C)ccnc3C(C)C)c3nc(-c4c(O)cccc4F)c(F)cc23)C(C)C1,IC50,second compound 0.1 µM,8.94 µM
same,IC50,second compound 0.316 µM,9.58 µM
same,IC50,second compound 1 µM,8.59 µM
same,IC50,second compound 3.16 µM,9.15 µM
same,IC50,second compound 10 µM,> 10 µM
same,"viability, T/C",[1],84.2%
same,"viability, T/C","second compound 0.1 µM, first compound 0.1 µM",105%
same,"viability, T/C","second compound 0.1 µM, first compound 0.316 µM",97.6%
same,"viability, T/C","second compound 0.1 µM, first compound 1 µM",93.6%
same,"viability, T/C","second compound 0.1 µM, first compound 3.16 µM",107%
same,"viability, T/C","second compound 0.1 µM, first compound 10 µM",44.9%
same,"viability, T/C",[2],98.4%
same,"viability, T/C","second compound 0.316 µM, first compound 0.1 µM",108%
same,"viability, T/C","second compound 0.316 µM, first compound 0.316 µM",104%
same,"viability, T/C","second compound 0.316 µM, first compound 1 µM",105%
same,"viability, T/C","second compound 0.316 µM, first compound 3.16 µM",92.2%
same,"viability, T/C","second compound 0.316 µM, first compound 10 µM",47.9%
same,"viability, T/C",[3],92.8%
same,"viability, T/C","second compound 1 µM, first compound 0.1 µM",108%
same,"viability, T/C","second compound 1 µM, first compound 0.316 µM",91.4%
same,"viability, T/C","second compound 1 µM, first compound 1 µM",109%
same,"viability, T/C","second compound 1 µM, first compound 3.16 µM",84.8%
same,"viability, T/C","second compound 1 µM, first compound 10 µM",44.7%
same,"viability, T/C",[4],80.1%
same,"viability, T/C","second compound 3.16 µM, first compound 0.1 µM",96.9%
same,"viability, T/C","second compound 3.16 µM, first compound 0.316 µM",88.7%
same,"viability, T/C","second compound 3.16 µM, first compound 1 µM",102%
same,"viability, T/C","second compound 3.16 µM, first compound 3.16 µM",89.6%
same,"viability, T/C","second compound 3.16 µM, first compound 10 µM",46.5%
same,"viability, T/C",[5],96.6%
same,"viability, T/C","second compound 10 µM, first compound 0.1 µM",73.2%
same,"viability, T/C","second compound 10 µM, first compound 0.316 µM",69.3%
same,"viability, T/C","second compound 10 µM, first compound 1 µM",84.2%
same,"viability, T/C","second compound 10 µM, first compound 3.16 µM",81.1%
same,"viability, T/C","second compound 10 µM, first compound 10 µM",57%
